Reference: US20250326771A1, “PIPERAZINE DERIVATIVES USEFUL IN HIV THERAPY” (VIIV HEALTHCARE COMPANY, priority 2022, published 2025)

Experiments:
[1] = test system: Jurkat HIV-luciferase clones; assay: Jurkat latency reversal assay; format: cell-based; settings: Homo sapiens, 48 h; Jurkat latency reversal assay potency; read-out: Jurkat pEC50 (converted)
Protocol: Jurkat HIV-luciferase clones were maintained in RPMI medium 1640 (Gibco by Life Technologies) containing 10% (vol/vol) fetal bovine serum (SAFC/Sigma-Aldrich) and 25 units/mL penicillin, 25 units/mL streptomycin (Gibco by Life Technologies), and were split 1:4 every 3 to 4 days to maintain a cell density of ˜0.3 to 1 million cells/mL. The Jurkat clones were maintained with the addition of 500 nM EFV in the medium. Three Jurkat cell clones (C16, 115, and N6), each harboring one or two integrated HIV proviruses expressing the luciferase reporter gene, were added at equal amounts for a total of 5,000 cells per well to 384-well plates containing compound titrations. Dose-response testing was performed on compounds dissolved in dimethyl sulfoxide (DMSO; Fisher Scientific, Merelbeke, Belgium) dispensed in duplicate serial 3-fold, 14-point titrations using a D300e Digital Droplet Dispenser (Hewlett-Packard) to give final assay concentrations of 10 μM to […] in 50 μL of medium at 0.5% DMSO (vol/vol) final concentration. Cells and compound were incubated at 37° C. for 48 hours, unless otherwise indicated, followed by the addition of 20 μL of Steady-Glo® Luciferase (Promega). Luminescence resulting from the induction of the virally expressed luciferase was measured using an EnVision 2102 Multilabel Plate Reader (Perkin Elmer). Dose-response relationships were analyzed with GraphPad PRISM 6 using a four-parameter logistic regression model to calculate the concentration of compound that gives half-maximal response (EC50) and the maximal percent activation compared to the vehicle control.

[2] = target: cIAP1-BIR3 (Homo sapiens (Human), UniProt Q13490); assay: BIR binding assay (FRET competition), cIAP1 BIR3; settings: for cIAP1 BIR3 vs BIR2 separation window: fold separation (FS) for cIAP1
Protocol: (§1) The BIR domain binding assays are FRET based competition assays that utilize His-tagged versions of each of the BIR2 and BIR3 domains from cIAP1, cIAP2, and XIAP (each domain assayed separately) each at a custom optimal concentration and a probe, 200 nM SMAC/DIABLO peptide […] labelled with AlexaFluor647 (part #crb 1110326h, Discovery Peptides). The assay is conducted in 50 mM HEPES, […], 1 mM CHAPS, 5% Glycerol, 1 mM DTT, in dI water with a final pH of 7.4 and final volume of 20 uL. Final protein domain concentrations are: 50 nM cIAP1-BIR3 (Part #APT-11-370 Reaction Biology), 100 nM XIAP-BIR3 (Part #APT-11-351 Reaction Biology), 200 nM XIAP-BIR2 (Part #APT-11-470 Reaction Biology), 325 nM cIAP2-BIR2 (Part #APT-11-489 Reaction Biology), 50 nM cIAP2-BIR3 (Part #APT-11-372 Reaction Biology), 325 nM cIAP1-BIR2 (Part #APT-11-487 Reaction Biology). Compounds were plated using a HP Tecan D300 printer in a final total volume of 202 nl and DMSO concentration normalized across the 15-point, 3-fold dilution series. Peptide and probe were prepared at 2× relative to the concentrations above in binding buffer, 10 uL added to the prepared compound plates, and incubated for 60 minutes. LANCE Eu-W1024 (part #AD0401 Perkin Elmer #, vendor) was prepared at 2× concentration in binding buffer for final concentration of 2 nM, 10 uL added to each well, and plates incubated for 30 minutes. Plates were read on an ENVISION multifunction plate reader with […] laser excitation to obtain the 615 nm/665 nm emission ratio as indicative of probe:protein proximity. Data was analyzed using GraphPad PRISM and curves fit using log(inhibitor) vs. response—Variable slope (four […] method to obtain IC50 and pIC50 values.

[3] = target: cIAP1-BIR2 (Homo sapiens (Human), UniProt Q13490); assay: BIR binding assay (FRET competition), cIAP1 BIR2
Protocol: as §1

[4] = target: cIAP2-BIR3 (Homo sapiens (Human), UniProt Q13489); assay: BIR binding assay (FRET competition), cIAP2 BIR3
Protocol: as §1

[5] = target: XIAP-BIR3 (Homo sapiens (Human), UniProt P98170); assay: BIR binding assay (FRET competition), XIAP BIR3
Protocol: as §1

XIAP-BIR3, sequence (P98170 241-356): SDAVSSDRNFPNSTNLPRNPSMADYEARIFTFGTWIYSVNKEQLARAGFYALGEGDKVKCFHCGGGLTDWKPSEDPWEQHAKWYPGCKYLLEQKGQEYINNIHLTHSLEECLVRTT
cIAP2-BIR3, sequence (Q13489 238-349): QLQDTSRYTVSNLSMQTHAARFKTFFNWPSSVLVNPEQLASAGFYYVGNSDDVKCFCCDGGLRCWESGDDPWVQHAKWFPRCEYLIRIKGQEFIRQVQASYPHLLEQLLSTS
cIAP1-BIR3, sequence (Q13490 253-363): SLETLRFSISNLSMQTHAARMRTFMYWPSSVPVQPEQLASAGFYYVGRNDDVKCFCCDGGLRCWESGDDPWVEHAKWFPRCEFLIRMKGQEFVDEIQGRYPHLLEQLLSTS
cIAP1-BIR2, sequence (Q13490 173-257): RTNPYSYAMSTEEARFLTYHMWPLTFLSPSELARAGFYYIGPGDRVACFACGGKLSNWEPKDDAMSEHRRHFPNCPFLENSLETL

C[C@@H]1CN(CC(=O)N2CC(C)(C)c3ncc(Cc4ccc(Br)cc4)cc32)[C@@H](CN2CCO[C@H](COc3cccc(OC[C@@H]4CN(C[C@H]5CN[C@H](C)CN5CC(=O)N5CC(C)(C)c6ncc(Cc7ccc(Br)cc7)cc65)CCO4)c3)C2)CN1 [Compound 153]
EC50 [1]: 63.1 to 316 nM
IC50 [2]: 31.6 to 501 nM
cIAP1 BIR3 vs BIR2 separation window [2]: +++ (10,000>FS>1,000)
IC50 [3]: 10000 to 51300 nM
IC50 [4]: 31.6 to 501 nM
IC50 [5]: 31.6 to 501 nM

C[C@@H]1CN(CC(=O)N2CC(C)(C)c3ncc(Cc4ccc(Cl)cc4)cc32)[C@@H](CN2CCO[C@H](COc3cccc(OC[C@@H]4CN(C[C@H]5CN[C@H](C)CN5CC(=O)N5CC(C)(C)c6ncc(Cc7ccc(Cl)cc7)cc65)CCO4)c3)C2)CN1 [Compound 147]
EC50 [1]: 12.6 to 63.1 nM
IC50 [2]: 15.8 to 31.6 nM
cIAP1 BIR3 vs BIR2 separation window [2]: +++ (10,000>FS>1,000)
IC50 [3]: 3160 to 10000 nM
IC50 [4]: 15.8 to 31.6 nM
IC50 [5]: 31.6 to 501 nM

C[C@@H]1CN(CC(=O)N2CC(C)(C)c3ncc(Cc4ccc(F)cc4)cc32)[C@@H](CN2CCN(S(=O)(=O)c3cccc(S(=O)(=O)N4CCN(C[C@H]5CN[C@H](C)CN5CC(=O)N5CC(C)(C)c6ncc(Cc7ccc(F)cc7)cc65)[C@H](C)C4)c3)C[C@H]2C)CN1 [Example 36, 2,2′-((3R,3′R,6R,6′R)-(((2R,2′R)-(1,3-phenylenedisulfonyl)bis(2-methylpiperazine-4,1-diyl))bis(methylene))bis(3-methylpiperazine-6,1-diyl))bis(1-(6-(4-fluorobenzyl)-3,3-dimethyl-2,3-dihydro-1H-pyrrolo[3,2-b]pyridin-1-yl)ethan-1-one)]
EC50 [1]: 0.49 to 12.6 nM
IC50 [2]: 15.8 to 31.6 nM
cIAP1 BIR3 vs BIR2 separation window [2]: +++ (10,000>FS>1,000)
IC50 [3]: 3160 to 10000 nM
IC50 [4]: 15.8 to 31.6 nM
IC50 [5]: 31.6 to 501 nM

C[C@@H]1CN(CC(=O)N2CC(C)(C)c3[nH]c(=O)c(Cc4ccc(F)cc4)cc32)[C@@H](CN2CCC(CCCC3CCN(C[C@H]4CN[C@H](C)CN4CC(=O)N4CC(C)(C)c5[nH]c(=O)c(Cc6ccc(F)cc6)cc54)CC3)CC2)CN1 [Example 94, 1,1′-(2,2′-((3R,3′R,6R,6′R)-((propane-1,3-diylbis(piperidine-4,1-diyl))bis(methylene))bis(3-methylpiperazine-6,1-diyl))bis(acetyl))bis(6-(4-fluorobenzyl)-3,3-dimethyl-1,2,3,4-tetrahydro-5H-pyrrolo[3,2-b]pyridin-5-one)]
EC50 [1]: 0.49 to 12.6 nM
IC50 [2]: 7.94 to 15.8 nM
IC50 [4]: 7.94 to 15.8 nM
IC50 [5]: 15.8 to 31.6 nM

C[C@@H]1CN(CC(=O)N2CC(C)(C)c3[nH]c(=O)c(Cc4ccc(F)cc4)cc32)[C@@H](CN2CCC[C@@H](NC(=O)CCCCCCCCCCCCC(=O)N[C@@H]3CCCN(C[C@H]4CN[C@H](C)CN4CC(=O)N4CC(C)(C)c5[nH]c(=O)c(Cc6ccc(F)cc6)cc54)C3)C2)CN1 [Example 46, N1,N^14-bis((R)-1-(((2R,5R)-1-(2-(6-(4-fluorobenzyl)-3,3-dimethyl-5-oxo-2,3,4,5-tetrahydro-1H-pyrrolo[3,2-b]pyridin-1-yl)-2-oxoethyl)-5-methylpiperazin-2-yl)methyl)piperidin-3-yl)tetradecanediamide]
EC50 [1]: 63.1 to 316 nM
cIAP1 BIR3 (pIC50) ([2]; FRET competition binding): ++ (7.80>pIC50>=7.50)
cIAP1 BIR3 vs BIR2 separation window [2]: +++ (10,000>FS>1,000)
IC50 [3]: 3160 to 10000 nM
cIAP2 BIR3 (pIC50) ([4]; FRET competition binding): ++ (7.80>pIC50>=7.50)
XIAP BIR3 (pIC50) ([5]; FRET competition binding): + (7.50>pIC50>=6.30)

C[C@@H]1CN(CC(=O)N2CC(C)(C)c3[nH]c(=O)c(Cc4ccc(F)cc4)cc32)[C@@H](CN2CCO[C@H](COc3ccc(C(=O)c4ccc(OC[C@@H]5CN(C[C@H]6CN[C@H](C)CN6CC(=O)N6CC(C)(C)c7[nH]c(=O)c(Cc8ccc(F)cc8)cc76)CCO5)cc4)cc3)C2)CN1 [Example 54, 1,1′-(2,2′-((3R,3′R,6R,6′R)-(((2S,2'S)-(((carbonylbis(4,1-phenylene))bis(oxy))bis(methylene))bis(morpholine-2,4-diyl))bis(methylene))bis(3-methylpiperazine-6,1-diyl))bis(acetyl))bis(6-(4-fluorobenzyl)-3,3-dimethyl-1,2,3,4-tetrahydro-5H-pyrrolo[3,2-b]pyridin-5-one)]
EC50 [1]: 0.49 to 12.6 nM
IC50 [2]: 15.8 to 31.6 nM
IC50 [4]: 15.8 to 31.6 nM
IC50 [5]: 15.8 to 31.6 nM

C[C@@H]1CN(CC(=O)N2CC(C)(C)c3[nH]c(=O)c(Cc4ccc(F)cc4)cc32)[C@@H](CN2CCO[C@H](COc3ccc(C(C)(C)c4ccc(OC[C@@H]5CN(C[C@H]6CN[C@H](C)CN6CC(=O)N6CC(C)(C)c7[nH]c(=O)c(Cc8ccc(F)cc8)cc76)CCO5)cc4)cc3)C2)CN1 [Example 56, 1,1′-(2,2′-((3R,3′R,6R,6′R)-(((2S,2'S)-(((propane-2,2-diylbis(4,1-phenylene))bis(oxy))bis(methylene))bis(morpholine-2,4-diyl))bis(methylene))bis(3-methylpiperazine-6,1-diyl))bis(acetyl))bis(6-(4-fluorobenzyl)-3,3-dimethyl-1,2,3,4-tetrahydro-5H-pyrrolo[3,2-b]pyridin-5-one)]
EC50 [1]: 12.6 to 63.1 nM
IC50 [2]: 31.6 to 501 nM
IC50 [4]: 31.6 to 501 nM
IC50 [5]: 31.6 to 501 nM

Cc1ccc(Cc2cnc3c(c2)N(C(=O)CN2C[C@@H](C)NC[C@@H]2CN2CCO[C@H](COc4cccc(OC[C@@H]5CN(C[C@H]6CN[C@H](C)CN6CC(=O)N6CC(C)(C)c7ncc(Cc8ccc(C)cc8)cc76)CCO5)c4)C2)CC3(C)C)cc1 [Compound 148]
EC50 [1]: 12.6 to 63.1 nM
IC50 [2]: 15.8 to 31.6 nM
cIAP1 BIR3 vs BIR2 separation window [2]: ++++ (FS>10,000)
IC50 [3]: 10000 to 51300 nM
IC50 [4]: 15.8 to 31.6 nM
IC50 [5]: 31.6 to 501 nM

C[C@@H]1CN(CC(=O)N2CC(C)(C)c3[nH]c(=O)c(Cc4ccc(F)cc4)cc32)[C@@H](CN2CCO[C@H](COc3ccc(S(=O)(=O)c4ccc(OC[C@@H]5CN(C[C@H]6CN[C@H](C)CN6CC(=O)N6CC(C)(C)c7[nH]c(=O)c(Cc8ccc(F)cc8)cc76)CCO5)cc4)cc3)C2)CN1 [Example 57, 1,1′-(2,2′-((3R,3′R,6R,6′R)-(((2S,2'S)-(((sulfonylbis(4,1-phenylene))bis(oxy))bis(methylene))bis(morpholine-2,4-diyl))bis(methylene))bis(3-methylpiperazine-6,1-diyl))bis(acetyl))bis(6-(4-fluorobenzyl)-3,3-dimethyl-1,2,3,4-tetrahydro-5H-pyrrolo[3,2-b]pyridin-5-one)]
EC50 [1]: 12.6 to 63.1 nM
IC50 [2]: 31.6 to 501 nM
IC50 [4]: 15.8 to 31.6 nM
IC50 [5]: 31.6 to 501 nM

C[C@@H]1CN(CC(=O)N2CC(C)(C)c3ncc(Cc4ccc(C(F)(F)F)cc4)cc32)[C@@H](CN2CCO[C@H](COc3cccc(OC[C@@H]4CN(C[C@H]5CN[C@H](C)CN5CC(=O)N5CC(C)(C)c6ncc(Cc7ccc(C(F)(F)F)cc7)cc65)CCO4)c3)C2)CN1 [Compound 149]
EC50 [1]: 63.1 to 316 nM
IC50 [2]: 31.6 to 501 nM
cIAP1 BIR3 vs BIR2 separation window [2]: +++ (10,000>FS>1,000)
IC50 [3]: 10000 to 51300 nM
IC50 [4]: 31.6 to 501 nM
IC50 [5]: 31.6 to 501 nM
